For data set [1], the target named is Cyclin-dependent kinase 2 (Homo sapiens, UniProt P24941). As to the kind of experiment: Inhibition of CDK2/Cyclin E assessed as inhibition of retinoblastoma susceptibility gene product phosphorylation.
Data set [2] in a line: Metabolic stability in Sprague-Dawley rat liver microsome assessed as half life after 15 mins using NADPH cofactor. In kind it is ADME. The conditions noted are these: liver microsomes.
Data set [3] in a line: Metabolic stability in Sprague-Dawley rat liver microsome assessed as half life after 15 mins using NADPH/UDPGA cofactor. The conditions noted are these: liver microsomes. In kind it is ADME. (In general: Liver microsomes are vesicles of endoplasmic reticulum, rich in cytochrome P450 enzymes.)
In data set [4] the target is Cyclin-dependent kinase 4/cyclin D1 (Homo sapiens, UniProt P11802). As to the kind of experiment: (§1) Inhibition of CDK4/Cyclin D1 assessed as inhibition of retinoblastoma susceptibility gene product phosphorylation. The data set is classed as protein-complex assay.
The target of data set [5] is Cyclin-dependent kinase 1/cyclin B1 (Homo sapiens, UniProt P06493). As to the kind of experiment: (§2) Inhibition of CDK1/Cyclin B1 assessed as inhibition of retinoblastoma susceptibility gene product phosphorylation.
The test system of another data set is HCT-116. As to the kind of experiment: cells. The conditions noted are these: Homo sapiens, HCT-116, 72 h.
The subject of another data set is MCF7. The experiment in a line: cells. The conditions noted are these: Homo sapiens, MCF7, 72 h.
Data set [6] concerns the target Cyclin-dependent kinase 1/cyclin B1 (Homo sapiens, UniProt P06493+P14635). The data set is described as §2.
Data set [7] in a line: Selectivity for CDK4/Cyclin D1 over […].
A short description of data set [8]: Selectivity for CDK4/Cyclin D1 over CDK2/Cyclin E.
In data set [9] the target is MAP kinase-activated protein kinase 2 (Homo sapiens, UniProt P49137). As to the kind of experiment: Inhibition of MK2.
In data set [10] the target is Mitogen-activated protein kinase kinase kinase 8 (Homo sapiens, UniProt P41279). As to the kind of experiment: Inhibition of Tpl2.
The target in data set [11] is Tyrosine-protein kinase Lck (Homo sapiens, UniProt P06239). The experiment in a line: Inhibition of LCK.
Data set [12] addresses Serine/threonine-protein kinase mTOR (Homo sapiens, UniProt P42345). The experiment in a line: Inhibition of mTOR.
The target in data set [13] is Protein kinase C theta type (Homo sapiens, UniProt Q04759). The experiment in a line: Inhibition of PKCtheta.
Data set [14] deals with Signal transducer and activator of transcription 3 (Homo sapiens, UniProt P40763). The experiment in a line: Inhibition of STAT3.
In data set [15] the target is Tyrosine-protein kinase Lyn (Homo sapiens, UniProt P07948). The experiment in a line: Inhibition of LYN.
Data set [16] in a line: Inhibition of p70S6.
Data set [17] addresses Proto-oncogene tyrosine-protein kinase Src (Homo sapiens, UniProt P12931). As to the kind of experiment: Inhibition of Src.
Data set [18] addresses RAC-alpha serine/threonine-protein kinase (Homo sapiens, UniProt P31749). The experiment in a line: Inhibition of AKT.
The target in data set [19] is Cyclin-dependent kinase 4/cyclin D1 (Homo sapiens, UniProt P11802+P24385). Described as §1. The data set is classed as protein-complex assay.

The structures appear in SMILES notation.

The IC50 is the midpoint of a concentration-inhibition curve. The half-life is how long it takes for the measured level to halve.

Chain of Cyclin-dependent kinase 1/cyclin B1 (Homo sapiens, UniProt P06493+P14635) (P06493 whole entry): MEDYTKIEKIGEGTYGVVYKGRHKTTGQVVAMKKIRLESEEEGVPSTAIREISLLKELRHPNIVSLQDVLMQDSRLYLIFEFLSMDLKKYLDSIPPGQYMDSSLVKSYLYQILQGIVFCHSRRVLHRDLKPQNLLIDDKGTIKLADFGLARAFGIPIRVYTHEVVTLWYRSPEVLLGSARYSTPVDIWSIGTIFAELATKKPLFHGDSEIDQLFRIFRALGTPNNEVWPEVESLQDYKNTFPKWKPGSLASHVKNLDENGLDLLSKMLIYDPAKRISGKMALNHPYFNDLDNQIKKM
Chain of Cyclin-dependent kinase 1/cyclin B1 (Homo sapiens, UniProt P06493+P14635) (P14635 whole entry): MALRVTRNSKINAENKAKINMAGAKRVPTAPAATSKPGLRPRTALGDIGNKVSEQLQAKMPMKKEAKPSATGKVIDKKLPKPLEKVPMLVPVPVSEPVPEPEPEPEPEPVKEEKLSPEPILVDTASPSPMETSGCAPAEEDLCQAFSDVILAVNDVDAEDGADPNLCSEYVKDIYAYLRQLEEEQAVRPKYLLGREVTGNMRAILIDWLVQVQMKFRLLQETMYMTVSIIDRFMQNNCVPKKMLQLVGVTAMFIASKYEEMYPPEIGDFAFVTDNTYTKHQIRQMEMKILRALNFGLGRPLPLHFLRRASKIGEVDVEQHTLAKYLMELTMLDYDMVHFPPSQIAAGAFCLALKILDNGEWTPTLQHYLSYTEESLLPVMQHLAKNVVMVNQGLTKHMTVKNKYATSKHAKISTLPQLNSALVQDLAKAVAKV
Chain of Cyclin-dependent kinase 1/cyclin B1 (Homo sapiens, UniProt P06493) (P06493 whole entry): as the sequence (P06493 whole entry) above
Chain of Cyclin-dependent kinase 1/cyclin B1 (Homo sapiens, UniProt P06493) (P14635 whole entry, further chain): as the sequence (P14635 whole entry) above
Chain of Cyclin-dependent kinase 4/cyclin D1 (Homo sapiens, UniProt P11802) (P11802 whole entry): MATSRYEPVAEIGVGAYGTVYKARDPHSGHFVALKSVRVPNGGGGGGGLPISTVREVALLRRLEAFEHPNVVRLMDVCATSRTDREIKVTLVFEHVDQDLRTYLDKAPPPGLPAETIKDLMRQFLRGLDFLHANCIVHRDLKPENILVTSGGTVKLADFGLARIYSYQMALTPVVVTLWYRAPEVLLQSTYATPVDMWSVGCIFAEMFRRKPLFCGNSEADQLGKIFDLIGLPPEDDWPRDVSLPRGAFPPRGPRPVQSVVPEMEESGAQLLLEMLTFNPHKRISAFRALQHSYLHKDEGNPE
Chain of Cyclin-dependent kinase 4/cyclin D1 (Homo sapiens, UniProt P11802) (P24385 whole entry, further chain): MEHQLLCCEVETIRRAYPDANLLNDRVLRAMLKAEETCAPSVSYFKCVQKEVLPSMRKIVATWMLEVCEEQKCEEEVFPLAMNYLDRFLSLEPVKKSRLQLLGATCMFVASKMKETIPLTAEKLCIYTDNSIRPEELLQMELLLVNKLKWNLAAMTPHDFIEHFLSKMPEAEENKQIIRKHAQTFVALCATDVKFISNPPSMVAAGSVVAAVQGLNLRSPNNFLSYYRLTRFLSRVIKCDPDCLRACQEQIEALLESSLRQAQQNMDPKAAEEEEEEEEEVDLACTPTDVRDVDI
Chain of Protein kinase C theta type (Q04759 whole entry): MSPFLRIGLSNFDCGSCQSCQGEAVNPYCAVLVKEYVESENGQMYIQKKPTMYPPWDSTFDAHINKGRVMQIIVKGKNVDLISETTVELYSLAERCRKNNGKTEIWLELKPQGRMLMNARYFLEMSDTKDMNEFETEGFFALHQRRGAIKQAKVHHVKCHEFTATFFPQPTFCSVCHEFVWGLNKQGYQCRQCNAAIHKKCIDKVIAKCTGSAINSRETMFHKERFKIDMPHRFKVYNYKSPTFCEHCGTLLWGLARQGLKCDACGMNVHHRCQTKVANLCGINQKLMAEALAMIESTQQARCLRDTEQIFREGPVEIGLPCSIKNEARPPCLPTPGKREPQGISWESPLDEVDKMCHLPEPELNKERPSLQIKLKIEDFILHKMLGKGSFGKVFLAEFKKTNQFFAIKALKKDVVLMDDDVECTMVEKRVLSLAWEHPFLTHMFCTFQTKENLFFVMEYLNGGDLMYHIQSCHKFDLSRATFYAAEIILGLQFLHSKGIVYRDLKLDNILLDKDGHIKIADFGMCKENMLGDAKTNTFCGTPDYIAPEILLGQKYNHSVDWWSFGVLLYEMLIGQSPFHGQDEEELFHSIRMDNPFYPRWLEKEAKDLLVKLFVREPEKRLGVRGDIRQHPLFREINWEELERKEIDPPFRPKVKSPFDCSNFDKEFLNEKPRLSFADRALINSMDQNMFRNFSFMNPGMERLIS
Chain of MAP kinase-activated protein kinase 2 (P49137 whole entry): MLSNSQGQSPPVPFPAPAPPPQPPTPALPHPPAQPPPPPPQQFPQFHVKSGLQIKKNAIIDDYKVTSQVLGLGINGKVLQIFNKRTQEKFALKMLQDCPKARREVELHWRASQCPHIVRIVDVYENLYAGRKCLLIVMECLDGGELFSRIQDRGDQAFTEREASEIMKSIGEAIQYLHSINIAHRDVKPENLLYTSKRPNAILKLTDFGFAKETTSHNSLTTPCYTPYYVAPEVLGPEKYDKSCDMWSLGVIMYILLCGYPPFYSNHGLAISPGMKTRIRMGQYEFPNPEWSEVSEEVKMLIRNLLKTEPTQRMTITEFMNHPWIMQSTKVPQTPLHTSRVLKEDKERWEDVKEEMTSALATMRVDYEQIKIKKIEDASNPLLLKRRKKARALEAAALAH
Chain of Tyrosine-protein kinase Lyn (P07948 whole entry): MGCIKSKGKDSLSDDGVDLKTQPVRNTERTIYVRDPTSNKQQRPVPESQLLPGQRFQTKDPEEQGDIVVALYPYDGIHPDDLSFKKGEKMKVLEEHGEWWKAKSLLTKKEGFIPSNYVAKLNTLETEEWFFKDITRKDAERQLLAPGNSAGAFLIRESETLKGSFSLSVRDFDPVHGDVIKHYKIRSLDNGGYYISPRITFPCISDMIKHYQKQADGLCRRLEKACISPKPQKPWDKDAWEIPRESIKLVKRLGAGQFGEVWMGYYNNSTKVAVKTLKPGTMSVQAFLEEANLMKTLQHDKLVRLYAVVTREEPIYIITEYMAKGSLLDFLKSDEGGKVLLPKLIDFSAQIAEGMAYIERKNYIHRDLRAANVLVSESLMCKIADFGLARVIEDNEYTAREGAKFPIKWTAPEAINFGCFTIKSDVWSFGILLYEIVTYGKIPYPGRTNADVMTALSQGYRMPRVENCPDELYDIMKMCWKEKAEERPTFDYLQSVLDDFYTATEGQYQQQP
Chain of Tyrosine-protein kinase Lck (P06239 whole entry): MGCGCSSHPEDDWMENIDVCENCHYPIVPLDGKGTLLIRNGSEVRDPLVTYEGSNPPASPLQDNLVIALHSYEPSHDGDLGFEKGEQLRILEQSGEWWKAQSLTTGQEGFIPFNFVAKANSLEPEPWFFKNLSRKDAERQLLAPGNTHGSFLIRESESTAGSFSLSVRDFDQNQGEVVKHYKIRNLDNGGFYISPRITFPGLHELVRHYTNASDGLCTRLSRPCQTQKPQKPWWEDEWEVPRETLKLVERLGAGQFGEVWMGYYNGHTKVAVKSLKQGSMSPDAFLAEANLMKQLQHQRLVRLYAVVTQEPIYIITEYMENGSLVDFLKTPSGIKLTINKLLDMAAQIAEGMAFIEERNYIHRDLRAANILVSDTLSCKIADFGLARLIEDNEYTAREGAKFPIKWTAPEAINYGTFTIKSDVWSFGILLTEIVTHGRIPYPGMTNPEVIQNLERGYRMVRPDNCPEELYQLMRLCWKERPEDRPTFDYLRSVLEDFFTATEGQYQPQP
Chain of Cyclin-dependent kinase 4/cyclin D1 (Homo sapiens, UniProt P11802+P24385) (P11802 whole entry): as the sequence (P11802 whole entry) above
Chain of Cyclin-dependent kinase 4/cyclin D1 (Homo sapiens, UniProt P11802+P24385) (P24385 whole entry): as the sequence (P24385 whole entry, further chain) above
Chain of Signal transducer and activator of transcription 3 (P40763 whole entry): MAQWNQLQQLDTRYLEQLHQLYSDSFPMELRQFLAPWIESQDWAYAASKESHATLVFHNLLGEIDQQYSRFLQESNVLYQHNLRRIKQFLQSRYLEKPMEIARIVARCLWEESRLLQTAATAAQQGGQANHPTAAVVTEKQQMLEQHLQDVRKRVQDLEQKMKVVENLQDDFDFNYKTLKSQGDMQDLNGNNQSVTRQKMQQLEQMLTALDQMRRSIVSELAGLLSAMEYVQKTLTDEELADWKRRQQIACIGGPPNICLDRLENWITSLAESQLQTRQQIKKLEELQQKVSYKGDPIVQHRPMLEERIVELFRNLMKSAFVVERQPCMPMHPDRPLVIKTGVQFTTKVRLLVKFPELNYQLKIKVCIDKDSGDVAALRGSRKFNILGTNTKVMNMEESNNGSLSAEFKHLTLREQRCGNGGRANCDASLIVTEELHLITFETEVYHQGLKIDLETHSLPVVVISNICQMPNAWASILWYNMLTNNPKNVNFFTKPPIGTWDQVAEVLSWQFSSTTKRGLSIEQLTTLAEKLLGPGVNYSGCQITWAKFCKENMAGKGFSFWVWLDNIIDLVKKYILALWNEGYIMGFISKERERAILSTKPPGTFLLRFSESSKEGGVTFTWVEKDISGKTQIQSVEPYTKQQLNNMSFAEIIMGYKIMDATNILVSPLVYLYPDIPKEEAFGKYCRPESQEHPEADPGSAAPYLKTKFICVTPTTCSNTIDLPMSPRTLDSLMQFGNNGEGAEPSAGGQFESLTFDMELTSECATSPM
Description for HCT-116: Cytotoxicity against human HCT116 cells after 3 days by SRB assay
Description for MCF7: Cytotoxicity against human MCF7 cells after 3 days by SRB assay

On to `CCCOc1ccc(CN/C=C2\C(=O)NC(=O)c3ccc(I)cc32)cc1O`, for which the IC50 is 2600 nM in [1]; 20 nM in data set [4]; more than 50000 nM in data set [5]; 650 nM in the data set with HCT-116; 1800 nM in the data set on MCF7. The half-life in [2] is more than 30 min; in data set [3] it was 15 min.

Turning to `COc1ccc(CN/C=C2\C(=O)NC(=O)c3ccc(F)cc32)cc1O`, the IC50 in [1] was 6600 nM; in [6], less than 50000 nM.

For `O=C1NC(=O)c2ccc(I)cc2/C1=C/NCc1ccc(-c2ccccc2)c(O)c1`, the half-maximal inhibitory concentration (IC50) in the data set with HCT-116 turned out to be 420 nM; in the data set with MCF7, 880 nM.

As for `COc1ccc(CN/C=C2\C(=O)NC(=O)c3ccc(-n4cccc4)cc32)cc1O`, the IC50 in data set [1] came to 3100 nM.

Regarding `COc1ccc(CN/C=C2\C(=O)NC(=O)c3ccc(Br)cc32)cc1O`, the results for the IC50 in data set [1], in data set [4] and in [6] were less than 50000 nM, 30 nM and less than 50000 nM, respectively. In addition, the Ratio IC50 in data set [7] and in [8] was 1600 each time.

Consider `COc1cnc(CN/C=C2\C(=O)NC(=O)c3ccc(I)cc32)nc1O`, for which the half-maximal inhibitory concentration (IC50) in data set [1] is more than 50000 nM; in data set [4], 440 nM; in data set [5] it was more than 50000 nM; in the data set with HCT-116 it was more than 50000 nM; with MCF7, more than 50000 nM.

Turning to `COCCOc1ccc(CN/C=C2\C(=O)NC(=O)c3ccc(Br)cc32)cc1O`, the IC50 is less than 50000 nM in data set [1], 40 nM in [4] and less than 50000 nM in [6].

Take `COc1ccc(CN/C=C2\C(=O)NC(=O)c3ccc(-c4ccccc4)cc32)cc1O`: the IC50 in data set [1] stood at 25900 nM; in data set [4], 10 nM; in data set [5], 34700 nM.

Consider `O=C1NC(=O)c2ccc(I)cc2/C1=C/NCc1ccc(-c2cccnc2)c(O)c1`, for which the IC50 in [4] is 10 nM; in [5] it was more than 50000 nM; with HCT-116 it was 440 nM; in the data set on MCF7 it was 1100 nM.

Regarding `Nc1ccc(CN/C=C2\C(=O)NC(=O)c3ccc(Br)cc32)cc1O`, the IC50 in data set [6] is less than 50000 nM.

Take `O=C1NC(=O)c2ccccc2/C1=C/Nc1ccc(O)c(O)c1`: the IC50 in [4] is 7800 nM.

`CCCOc1ccc(CN/C=C2\C(=O)NC(=O)c3ccc(I)cc32)nc1O`: the IC50 in data set [1] was 700 nM; in data set [4], 20 nM; in [5], 10100 nM; in the data set with HCT-116 it was 670 nM; with MCF7, 1400 nM. In addition, the half-life in data set [2] and in data set [3] was more than 30 min in each case.

With `CC(C)(C)c1ccc2c(c1)/C(=C/NCc1cc(O)c(-c3ccoc3)cn1)C(=O)NC2=O`, the IC50 in [4] is 20 nM; in data set [5], 9500 nM; in the data set with HCT-116 it was 480 nM; with MCF7, 1400 nM.

On to `CCCOc1ccc(CN/C=C2\C(=O)NC(=O)c3ccc(Br)cc32)cc1O`, for which, in data set [1], the 50% inhibitory concentration (IC50) is 34500 nM.

As to `O=C1NC(=O)c2ccc(C3CCCC3)cc2/C1=C/NCc1cc(O)c(-c2ccoc2)cn1`, the IC50 in data set [4] was less than 5 nM; in [5], 3100 nM; in the data set with HCT-116, 810 nM; in the data set with MCF7, 830 nM.

For the compound `O=C1NC(=O)c2ccc(I)cc2/C1=C/NCc1ccc(-c2ccoc2)c(O)c1`, the 50% inhibitory concentration (IC50) in data set [9] was 19000 nM; in [10] it was more than 4000 nM; in data set [11] it was more than 30000 nM; in data set [12] it was 18000 nM; in data set [13] it was 25900 nM; in data set [14], 1700 nM. Moreover, the IC50 in data set [15] is 8500 nM; in data set [16], more than 30000 nM; in data set [17], more than 30000 nM; in data set [4], 60 nM; in data set [5] it was 24400 nM; in data set [18], 10200 nM. For the same compound, the half-life in [2] was more than 30 min; in data set [3], 18 min.

Consider `O=C1NC(=O)c2ccccc2/C1=C/NCc1cccc(O)c1`, for which the IC50 was 16900 nM in [1] and less than 50000 nM in [6].

For `O=C1NC(=O)c2ccccc2/C1=C/NCc1ccc(O)c(O)c1`, the IC50 in [4] came to 1200 nM; in [5], 36600 nM.

In the case of `CCCOc1cnc(CN/C=C2\C(=O)NC(=O)c3ccc(C4CCCC4)cc32)cc1O`, the IC50 is less than 5 nM in data set [4], 3100 nM in data set [5], 150 nM with HCT-116 and 300 nM in the data set on MCF7.

With `O=C1NC(=O)c2ccc(Br)cc2/C1=C/NCc1ccc(O)c(O)c1`, the IC50 in [1] was less than 50000 nM; in data set [4], 40 nM; in [6], less than 50000 nM.

`O=C1NC(=O)c2ccc(Br)cc2/C1=C/NCc1cc[nH]c(=O)c1`: the IC50 in data set [5] was more than 50000 nM.

`COc1ccc(C(C)N/C=C2\C(=O)NC(=O)c3ccc(Br)cc32)cc1O` (centres undefined): the IC50 in data set [1] is less than 50000 nM; in data set [4], 370 nM; in [6] it was less than 50000 nM.

On to `O=C1NC(=O)c2ccc(I)cc2/C1=C/NCc1ccc(-c2ccccn2)c(O)c1`, for which the IC50 is more than 50000 nM in data set [1]; 19300 nM in [4]; more than 50000 nM in [5]; 250 nM in the data set on HCT-116; 540 nM with MCF7.

As to `O=C1NC(=O)c2ccccc2/C1=C/NCc1ccc(O)cc1`, the IC50 was 17300 nM in data set [1] and less than 50000 nM in data set [19].

Take `COc1ccc(CN/C=C2\C(=O)NC(=O)c3ccc(-c4ccoc4)cc32)cc1O`: the values for the IC50 in [1] and in data set [4] were 1100 nM and 2 nM, respectively.

For the compound `O=C1NC(=O)c2ccc(I)cc2/C1=C/NCc1cc(O)c(-c2ccoc2)cn1`, the half-life is more than 30 min in data set [2] and 22 min in data set [3]. In addition, the half-inhibitory concentration (IC50) worked out at 550 nM in the data set on HCT-116 and 2700 nM in the data set on MCF7.

For `O=C1NC(=O)c2ccc(I)cc2/C1=C/NCc1ccc(-c2ccncc2)c(O)c1`, the IC50 is more than 50000 nM in [1]; 8 nM in data set [4]; more than 50000 nM in data set [5]; 2300 nM in the data set on HCT-116; 1500 nM in the data set with MCF7.

With `CCCOc1cnc(CN/C=C2\C(=O)NC(=O)c3ccc(I)cc32)cc1O`, the half-life in [2] and in [3] was more than 30 min each time. In addition, the IC50 in data set [4] came out at 30 nM; in data set [5], 25300 nM; in the data set with HCT-116, 730 nM; with MCF7, 880 nM.

On to `COc1ccc(CN/C=C2\C(=O)NC(=O)c3ccc(Cl)cc32)cc1O`, for which the IC50 in data set [1] and in data set [6] was less than 50000 nM in each case.

For the compound `O=C1NC(=O)c2ccc(I)cc2/C1=C/NCc1ccc(-c2ccco2)c(O)c1`, the IC50 in data set [4] was 100 nM; in data set [5], more than 50000 nM; in the data set with HCT-116, 380 nM; in the data set on MCF7, 700 nM.

For the compound `CCCOc1cnc(CN/C=C2\C(=O)NC(=O)c3ccc(C(C)(C)C)cc32)cc1O`, the IC50 in data set [4] turned out to be 20 nM; in data set [5] it was 6200 nM; in the data set with HCT-116, 430 nM; in the data set with MCF7, 700 nM.

With `Cc1ccc(CN/C=C2\C(=O)NC(=O)c3ccc(I)cc32)cc1O`, the IC50 in [1] came to 13600 nM; in data set [4], 30 nM; with HCT-116, 6700 nM; with MCF7, 8200 nM.

Take `O=C1NC(=O)c2ccccc2/C1=C/NCCc1ccc(O)c(O)c1`: the IC50 in [4] was determined as 16200 nM.

As for `COc1cnc(CN/C=C2\C(=O)NC(=O)c3ccc(I)cc32)cc1O`, the half-life in data set [2] and in [3] was more than 30 min throughout. For the same compound, the IC50 worked out at 10 nM in data set [4], 14700 nM in data set [5], 1300 nM with HCT-116 and 1000 nM with MCF7.

With `COc1ccc(CN(C)/C=C2\C(=O)NC(=O)c3ccc(Br)cc32)cc1O`, the IC50 in data set [6] was less than 50000 nM.

`COc1ccc(CN/C=C2\C(=O)NC(=O)c3ccc(-c4ccsc4)cc32)cc1O`: the Ratio IC50 in [7] turned out to be 11000; in data set [8], 9000.

As for `CC(C)(C)c1ccc2c(c1)/C(=C/NCc1cc(O)c(-c3ccccc3)cn1)C(=O)NC2=O`, the IC50 in [4] amounted to 30 nM; in the data set on HCT-116 it was 150 nM; with MCF7 it was 700 nM.

Take `COc1ccc(CN/C=C2\C(=O)NC(=O)c3ccc(I)cc32)cc1O`: the half-life in [2] is 18 min; in data set [3], 6 min. The IC50 worked out at 2000 nM with HCT-116 and 3700 nM in the data set with MCF7.

Take `COc1cc(CN/C=C2\C(=O)NC(=O)c3ccc(Br)cc32)cc(O)c1OC`: the IC50 in [1] was less than 50000 nM; in data set [4] it was 7 nM; in data set [6], less than 50000 nM.

As to `COc1coc(CN/C=C2\C(=O)NC(=O)c3ccc(Br)cc32)cc1=O`, the IC50 in [1] was 16900 nM; in data set [4] it was 1300 nM; in data set [5] it was more than 50000 nM.

In the case of `COc1ccc(CN/C=C2\C(=O)NC(=O)c3ccccc32)cc1O`, the IC50 worked out at 6900 nM in data set [1], 190 nM in data set [4] and 48700 nM in data set [5].

For `CCOc1ccc(CN/C=C2\C(=O)NC(=O)c3ccc(Br)cc32)cc1O`, in data set [6], the IC50 was less than 50000 nM.
